According to ChEMBL document CHEMBL1201862, “PubChem BioAssay data set” (2004):
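Grown in 96-well plates, cells were treated for 48 hours with each compound at five concentrations. Insufficient inhibition: endpoint recorded as highest concentration tested. At the GI50, growth is halved.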 Calls of active or inactive are those of the source. Cut-off read from the data, not from the text of the source: active = GI50 up to about 1.1 µM and inactive = higher.

Experiments:
Experiment in all cases: NCI-60 cell line screen, 48 h
786-0 = tested on: 786-0
A549 = tested on: A549
ACHN = tested on: ACHN
CAKI-1 = tested on: CAKI-1
COLO 205 = tested on: COLO 205
HOP-92 = tested on: HOP-92
Hs-578T = tested on: Hs-578T
M14 = tested on: M14
MCF7 = tested on: MCF7
MDA-N = tested on: MDA-N
NCI-H522 = tested on: NCI-H522
NCI/ADR-RES = tested on: NCI/ADR-RES
OVCAR-4 = tested on: OVCAR-4
PC-3 = tested on: PC-3
SF-539 = tested on: SF-539
SK-MEL-28 = tested on: SK-MEL-28
SK-MEL-5 = tested on: SK-MEL-5
SR = tested on: SR
SW-620 = tested on: SW-620
UACC-257 = tested on: UACC-257

Row | Compound | GI50 (786-0) | GI50 (A549) | GI50 (ACHN) | GI50 (CAKI-1) | GI50 (COLO 205) | GI50 (HOP-92) | GI50 (Hs-578T) | GI50 (M14) | GI50 (MCF7) | GI50 (MDA-N) | GI50 (NCI-H522) | GI50 (NCI/ADR-RES) | GI50 (OVCAR-4) | GI50 (PC-3) | GI50 (SF-539) | GI50 (SK-MEL-28) | GI50 (SK-MEL-5) | GI50 (SR) | GI50 (SW-620) | GI50 (UACC-257)
1 | O=C1OC(c2ccc(O)c(-c3ccccc3)c2)(c2ccc(O)c(-c3ccccc3)c2)c2c(Cl)c(Cl)c(Cl)c(Cl)c21 | > 100 µM (inactive) | > 100 µM (inactive) | > 100 µM (inactive) | > 100 µM (inactive) | > 100 µM (inactive) | > 100 µM (inactive) | > 100 µM (inactive) | > 100 µM (inactive) | > 100 µM (inactive) | > 100 µM (inactive) | > 100 µM (inactive) | > 100 µM (inactive) | > 100 µM (inactive) | > 100 µM (inactive) | > 100 µM (inactive) | > 100 µM (inactive) | > 100 µM (inactive) | > 100 µM (inactive) | > 100 µM (inactive) | > 100 µM (inactive)
2 | OCCN1CCN(c2nc(N3CCCC3)c3nc(Cl)c(NCc4ccccc4)nc3n2)CC1 | 1.95 µM (inactive) | 6.59 µM (inactive) | 7.8 µM (inactive) | 9.44 µM (inactive) | 2.47 µM (inactive) | 5.16 µM (inactive) | 8.61 µM (inactive) | 3.03 µM (inactive) | 4.31 µM (inactive) | 3.7 µM (inactive) | 5.04 µM (inactive) | 10.9 µM (inactive) | 11.2 µM (inactive) | 9.27 µM (inactive) | 5.81 µM (inactive) | 4.09 µM (inactive) | 3.51 µM (inactive) | 2.54 µM (inactive) | 3.78 µM (inactive) | 5.15 µM (inactive)
3 | CN(C)CC1CC/C(=C\c2ccc(O)cc2)C1=O (configuration not stated) | 2.16 µM (inactive) | 19 µM (inactive) | 3.51 µM (inactive) | 1.63 µM (inactive) | 1.87 µM (inactive) | 2.48 µM (inactive) | 7.11 µM (inactive) | 2.14 µM (inactive) | 1.66 µM (inactive) | 2.71 µM (inactive) | 1.47 µM (inactive) | 5.32 µM (inactive) | 7.38 µM (inactive) | 9.08 µM (inactive) | 7.8 µM (inactive) | 2.48 µM (inactive) | 8.28 µM (inactive) | 0.931 µM (active) | 2.33 µM (inactive) | 3.94 µM (inactive)
4 | Cc1nc(N)c(N2CCNCC2)c(O)n1 | > 100 µM (inactive) | > 100 µM (inactive) | > 100 µM (inactive) |  | > 100 µM (inactive) | > 100 µM (inactive) | > 100 µM (inactive) | > 100 µM (inactive) | > 100 µM (inactive) | > 100 µM (inactive) | > 100 µM (inactive) | > 100 µM (inactive) |  | > 100 µM (inactive) | > 100 µM (inactive) | > 100 µM (inactive) |  | > 100 µM (inactive) | > 100 µM (inactive) | > 100 µM (inactive)
5 | NNC(=O)CNc1cccc(Br)c1 | > 100 µM (inactive) | > 100 µM (inactive) | > 100 µM (inactive) | > 100 µM (inactive) | > 100 µM (inactive) | > 100 µM (inactive) | > 100 µM (inactive) | > 100 µM (inactive) | > 100 µM (inactive) | > 100 µM (inactive) | > 100 µM (inactive) | > 100 µM (inactive) | > 100 µM (inactive) | > 100 µM (inactive) | > 100 µM (inactive) | > 100 µM (inactive) | > 100 µM (inactive) | > 100 µM (inactive) | > 100 µM (inactive) | > 100 µM (inactive)
6 | CCOC(=O)c1ccc(Nc2nc3ccccc3n3cccc23)cc1 | 26.8 µM (inactive) | 86.5 µM (inactive) | 72.8 µM (inactive) | > 100 µM (inactive) | > 100 µM (inactive) | 52.7 µM (inactive) | 42.9 µM (inactive) | > 100 µM (inactive) | 32 µM (inactive) | 3.15 µM (inactive) | 88.1 µM (inactive) | 38.1 µM (inactive) |  | 36.6 µM (inactive) | 35.2 µM (inactive) | 88.1 µM (inactive) | 66.8 µM (inactive) | 8.97 µM (inactive) | 9.38 µM (inactive) | > 100 µM (inactive)
7 | CCNC(=O)C1CCCN1C(=O)C(CCCN=C(N)N)NC(=O)C(CC(C)C)NC(=O)C(Cc1c[nH]c2ccccc12)NC(=O)C(Cc1ccc(O)cc1)NC(=O)C(CO)NC(=O)C(Cc1c[nH]c2ccccc12)NC(=O)C(Cc1c[nH]cn1)NC(=O)C1CCC(=O)N1 (configuration not stated) | > 100 µM (inactive) | > 100 µM (inactive) | > 100 µM (inactive) | > 100 µM (inactive) | > 100 µM (inactive) | > 100 µM (inactive) | > 100 µM (inactive) | > 100 µM (inactive) | > 100 µM (inactive) | > 100 µM (inactive) | > 100 µM (inactive) | > 100 µM (inactive) | > 100 µM (inactive) | > 100 µM (inactive) | > 100 µM (inactive) |  | > 100 µM (inactive) | > 100 µM (inactive) | > 100 µM (inactive) | > 100 µM (inactive)
8 | CC(=O)C(=NNc1ccc(-n2c(C)nc3ccccc3c2=O)cc1)C(C)=O | > 100 µM (inactive) | > 100 µM (inactive) | > 100 µM (inactive) | > 100 µM (inactive) | > 100 µM (inactive) | > 100 µM (inactive) | > 100 µM (inactive) | > 100 µM (inactive) | > 100 µM (inactive) | > 100 µM (inactive) |  | > 100 µM (inactive) |  | > 100 µM (inactive) | > 100 µM (inactive) | > 100 µM (inactive) | 11.7 µM (inactive) | > 100 µM (inactive) | > 100 µM (inactive) | > 100 µM (inactive)
9 | CN(/N=C(\C(=O)O)c1ccccc1)C1=NCCCCN1 | > 100 µM (inactive) | > 100 µM (inactive) | > 100 µM (inactive) | > 100 µM (inactive) | > 100 µM (inactive) | > 100 µM (inactive) | > 100 µM (inactive) |  | > 100 µM (inactive) | > 100 µM (inactive) | > 100 µM (inactive) | > 100 µM (inactive) | > 100 µM (inactive) | > 100 µM (inactive) | > 100 µM (inactive) | > 100 µM (inactive) | > 100 µM (inactive) | > 100 µM (inactive) | > 100 µM (inactive) | > 100 µM (inactive)
10 | C/C=C(\C)[C@@H](O)C(=O)O[C@@H]1CC(C(C)(C)O)[C@](C)(CCC(=O)OC)[C@H]2[C@H](OC(=O)[C@H](O)[C@H](C)CC)C[C@]3(C)C(=CC[C@H]3[C@H]3CO[C@H](C=C(C)C)C3)[C@]12C (some centres not stated) | 16 µM (inactive) | 20.9 µM (inactive) | 18.1 µM (inactive) | 27.7 µM (inactive) |  | 23.3 µM (inactive) | 19.8 µM (inactive) | 18.2 µM (inactive) | 19.3 µM (inactive) | 20 µM (inactive) | 14.9 µM (inactive) | 16.4 µM (inactive) | 19.8 µM (inactive) | 16.7 µM (inactive) | 20.5 µM (inactive) | 21.6 µM (inactive) | 17.4 µM (inactive) | 14.5 µM (inactive) | 22.7 µM (inactive) | 20.7 µM (inactive)
11 | COc1ccc(N2C=Nn3c(nc4sc5c(c4c3=O)CCCC5)C2)cc1 | 5.77 µM (inactive) | > 100 µM (inactive) | 12.1 µM (inactive) | 40.4 µM (inactive) | > 100 µM (inactive) | 12.2 µM (inactive) | 3.02 µM (inactive) | 32.5 µM (inactive) | > 100 µM (inactive) | > 100 µM (inactive) | 16.3 µM (inactive) | > 100 µM (inactive) | > 100 µM (inactive) | > 100 µM (inactive) |  | > 100 µM (inactive) | > 100 µM (inactive) | > 100 µM (inactive) | > 100 µM (inactive) | 56.1 µM (inactive)
12 | OCC1OC(NC(=S)NCSCCC(F)(F)C(F)(F)C(F)(F)C(F)(F)C(F)(F)C(F)(F)F)C(O)C(O)C1O (configuration not stated) | 45.8 µM (inactive) | 58.1 µM (inactive) | 35.2 µM (inactive) | 76 µM (inactive) | 77.4 µM (inactive) | 22.7 µM (inactive) | 33.5 µM (inactive) | 17 µM (inactive) | 40.8 µM (inactive) | 43.6 µM (inactive) |  | > 100 µM (inactive) | > 100 µM (inactive) | 33.6 µM (inactive) | 16.6 µM (inactive) | 5.77 µM (inactive) | > 10 µM (inactive) | 49.3 µM (inactive) | 39.4 µM (inactive) | 46.6 µM (inactive)
13 | O=C(CN1CCN(Cc2ccccc2)CC1)N1CCCn2c1nc1ccccc1c2=O | > 100 µM (inactive) | > 100 µM (inactive) | > 100 µM (inactive) | > 100 µM (inactive) | > 100 µM (inactive) | 4.58 µM (inactive) | > 100 µM (inactive) | > 100 µM (inactive) | > 100 µM (inactive) | > 100 µM (inactive) | > 100 µM (inactive) | > 100 µM (inactive) | > 100 µM (inactive) | > 100 µM (inactive) | > 100 µM (inactive) |  | > 100 µM (inactive) | > 100 µM (inactive) | > 100 µM (inactive) | > 100 µM (inactive)
14 | COC(=O)C1(Cc2ccccc2)Cc2cc3c(cc2C1=O)CCC3 (configuration not stated) | 39.4 µM (inactive) | 16.6 µM (inactive) | 49.8 µM (inactive) |  | 19.5 µM (inactive) | 11.6 µM (inactive) | 49.7 µM (inactive) | 20 µM (inactive) | 13.9 µM (inactive) | 15 µM (inactive) | 21.2 µM (inactive) | 30.5 µM (inactive) | 33.7 µM (inactive) | 26.1 µM (inactive) | 43.2 µM (inactive) | 46.2 µM (inactive) | 16.6 µM (inactive) | 21.9 µM (inactive) | 29.6 µM (inactive) | 36.9 µM (inactive)
